# Legend:
# [1] = test system: tyrosine hydroxylase positive mesencephalic neurons injured by 6-OHDA; assay: Neuroprotective effect on damage induced by 6-OHDA on culture of mesencephalic neurons; format: cell-based; details: Rattus norvegicus, Neuron; 50 uM; 6-OHDA 15 μM, 48h; read-out: % reversion of TH positive neurons (6-OHDA-mediated degradation of dopaminergic neurons)
# Protocol: The protective effect of compounds of the present disclosure was determined on 6-OHDA-mediated injury on mesencephalon neuronal cultures.
# (§1) A female Wistar rat (Janvier; France) of 15 days gestation was terminated by cervical dislocation, the fetuses were removed from the uterus and their brains were harvested and placed in ice-cold medium (Leibovitz's L15 medium, Gibco). Only ventral mesencephalic flexure was used for the cell preparations. The midbrain was dissociated by trypsinization. The reaction was stopped, and the suspension was triturated and centrifuged. The pellet of dissociated cells was resuspended in chemically defined medium consisted of Neurobasal (Gibco, 21103049), containing B27 supplement (Gibco, A3582801) and L-glutamine (Gibco, 25030081), 10 ng/ml (BDNF; Pepro Tech, France, 450-02) and 1 ng/ml (GDNF; Pepro Tech, 450-51).
# (§2) Viable primary rat embryo mesencephalic cells were counted and seeded on 96-multi-wells plate precoated with poly-L-lysine. Cells were maintained in a humidified incubator at 37° C. in 5% CO2-95% air atmosphere and medium changed on day 2. On day 6, the culture medium was removed and replaced by new media without neurotrophic factors containing the compounds of the present disclosure (50-10 μM) or vehicle (0.1% DMSO). After 1h exposure, injury of mesencephalon neuronal cultures was induced by 6-OHDA (15 μM) for further 48h. A mixture of the growth factors GDNF (1 ng/ml) and BDNF (10 ng/ml) were used as reference compound. On day 8, the tyrosine hydroxylase positive neurons were evaluated. Cultures were fixed 30 min at 4° C. with paraformaldehyde in PBS (4%, Sigma). After, cells were permeabilized with 0.1% Triton X100 for 30 min, saturated with PBS containing 3% of BSA (bovine serum albumin) and incubated 2h with anti-tyrosine hydroxylase antibody (Sigma, 1:10000; clone TH-2) at 1/10000 in PBS containing 0.5% of BSA. Cells were washed three times with PBS containing 0.5% of BSA and incubated 1h with goat anti mouse antibody coupled with AF488 (Invitrogen A11001) diluted at 1/1000 in PBS containing 0.5% of BSA. Finally, nuclei were stained with DAPI (Thermo fisher, D1306) at 1/1000 in PBS containing 0.5% of BSA. After rinsing with PBS, the plate was visualized and examined with Cell Insight HCS (Thermo Scientific) to determine the number of tyrosine hydroxylase positive cells per well.
# (§3) The results for each well were expressed as a percentage by setting the density of tyrosine hydroxylase positive cells under control conditions to 100%. Then the result for each condition was reported as mean±SEM from 4 independent cultures.
# (§4) A global analysis of the data was performed using a one-way analysis of variance (ANOVA), followed by Fisher's Protected Least Significant Difference when applicable. The level of significance was set to p<0.05.
# [2] = test system: tyrosine hydroxylase positive mesencephalic neurons injured by MPP+; assay: Neuroprotective effect on damage induced by MPP+ on culture of mesencephalic neurons; format: cell-based; details: Rattus norvegicus, Neuron, MPP+ 50 μM, 48h, read-out: % reversion of TH positive neurons (MPTP-mediated degradation of dopaminergic neurons)
# Description: as §1, with “(Gibco),” for “(Gibco, 21103049),”, “(Gibco)” for “(Gibco, A3582801)”, “(Gibco),” for “(Gibco, 25030081),”, “France)” for “France, 450-02)”, “Tech).” for “Tech, 450-51).”
# as §2, with “MPP^+ (50” for “6-OHDA (15”, “Thermo Scientific, 28908).” for “Sigma).”, “DAPI” for “DAPI (Thermo fisher, D1306)”
# as §3, §4
# [3] = test system: primary fibroblasts (healthy controls and PA, MMA, BCKDK, PDH, VLCAD, LS, PC, GA, VLCFA, KSS, FXN, HD); assay: Measurement of ROS (H2DCFDA) in primary fibroblasts; format: cell-based, human; details: Homo sapiens, Fibroblast; BCKD GM00612; procedure Example 812; Assay Condition A; read-out: Decreased ROS by at least 10%
# Summary of the method: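 Patient and healthy-control primary fibroblasts switched to supplemented DMEM 24 h before assay, then treated with compound (10 μM) plus H2DCFDA (22 μM) for 2 h (PA, MMA lines) or 24 h (other lines). Kinetic fluorescence at 492/527 nm over 60 min; only live cells analysed.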
compound,measurement,setting,value
CC(C)(CO)[C@@H](O)C(=O)NCCC(=O)NCCSC(=O)[C@@H](N)CCC(=O)O [Compound 383],inhibition at 50 µM,[1],≥ 30%
same,inhibition at 10 µM,[2],≥ 60%
same,inhibition at 10 µM,[3],≥ 10%

# From patent US20230107216A1, “PANTETHEINE DERIVATIVES AND USES THEREOF” (Comet Therapeutics, Inc., priority 2018, published 2023)
